The target of data set [1] is T1, SARS-CoV-2 PLpro (Severe acute respiratory syndrome coronavirus 2, UniProt P0DTD1). Kind of data set: biochemical.
Data set [2] deals with T2, MERS-CoV PLpro (Middle East respiratory syndrome-related coronavirus, UniProt K9N7C7). Kind of data set: biochemical. It counts as binding.
For data set [3], the target named is T3, SARS-CoV PLpro (Severe acute respiratory syndrome coronavirus, UniProt P0C6X7). Kind of data set: biochemical.
In the next data set the test system is SARS-CoV-2. It counts as cell-based.
A short description of data set [4]: in vitro. To be noted: mouse, microsomes, pH 7.4.
For data set [5], the target named is T1, SARS-CoV-2 PLpro. Kind of data set: biochemical. It counts as binding.
In data set [6] the target is T3, SARS-CoV PLpro. In words: biochemical. It counts as binding.
A short description of data set [7]: in vitro. The following applies: human, Caco-2, pH 7.4.
Another data set can be described thus: physchem. The following applies: kinetic from dmso stock.
Data set [8] in a line: in vitro. The following applies: human, microsomes, pH 7.4.
Data set [9] deals with T2, MERS-CoV PLpro. In words: biochemical.

Converted amounts (≈) assume the structure as drawn. “And” between values parts separate entries of the source, which are not always exact repeats. Equal entries are not always repeated. Structures can show the parent of a compound that is named as a salt. Where two headings read alike, the source gives them in different places.

T2 sequence (K9N7C7 1482-1803 limits assumed): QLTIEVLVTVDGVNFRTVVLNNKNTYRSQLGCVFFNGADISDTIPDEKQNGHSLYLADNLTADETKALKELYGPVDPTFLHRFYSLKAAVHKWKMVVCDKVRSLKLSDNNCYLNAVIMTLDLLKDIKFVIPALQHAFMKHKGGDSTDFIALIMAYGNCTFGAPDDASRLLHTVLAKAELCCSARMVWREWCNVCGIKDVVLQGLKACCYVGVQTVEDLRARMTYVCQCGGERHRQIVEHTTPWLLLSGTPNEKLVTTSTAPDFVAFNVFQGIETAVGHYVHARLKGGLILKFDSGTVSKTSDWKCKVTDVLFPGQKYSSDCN

With `CCOc1ccc(Cl)cc1C(C)N1CCC(C(=O)NCc2ccnc(OC)c2)CC1` (stereo not drawn) [Compound 5, 1-[1-(5-chloro-2-ethoxyphenyl)ethyl]-N-[(2-methoxypyridin-4-yl)methyl]piperidine-4-carboxamide], the concentration for half-maximal inhibition (IC50) at SARS-CoV-2 PLpro [1] (calculated IC50) was 7900 nM.
`COc1cc(CNC(=O)C2CCN(C(C)c3csc4ccccc34)CC2)ccn1` (stereo not drawn) [Compound 2, 1-{1-[benzo(b)thiophen-3-yl]ethyl}-N-[(2-methoxypyridin-4-yl)methyl]piperidine-4-carboxamide formate]: the IC50 on SARS-CoV-2 PLpro [1] (calculated IC50) is 4500 nM.
For `COc1cc(C(=O)NCC2CCN([C@H](C)c3cccc4ccccc34)CC2)ccn1` [Compound 10, (R)-2-methoxy-N-((1-(1-(naphthalen-1-yl)ethyl)piperidin-4-yl)methyl)isonicotinamide], the “loss of potency relative to parent 5c” value on SARS-CoV-2 PLpro [1] was determined as 4 fold. On SARS-CoV-2 PLpro [1] (calculated IC50), the IC50 is 3400 nM.
Regarding `Cc1ncc(CNC(=O)C2CCN([C@H](C)c3cccc4ccccc34)CC2)s1` [Compound 14, (R)-N-[(2-methylthiazol-5-yl)methyl]-1-(1-(naphthalen-1-yl)ethyl)piperidine-4-carboxamide], the IC50 on SARS-CoV-2 PLpro [1] (calculated IC50) was 710 nM.
`CCOc1ccc2ccccc2c1C(C)N1CCC(C(=O)NCc2ccnc(OC)c2)CC1` (stereo not drawn) [Compound 7, 1-[1-(2-ethoxynaphthalen-1-yl)ethyl]-N-[(2-methoxypyridin-4-yl)methyl]piperidine-4-carboxamide]: the “potency against SARS-CoV-2 PLpro in words” value (from here on “potency … in words”) at SARS-CoV-2 PLpro [1] was “not tolerated”.
`COc1cc(CNC(=O)C2CCN(C(C)c3cccc(-c4ccccc4)c3)CC2)ccn1` (stereo not drawn) [Compound 1, 1-{1-[(1,1′-biphenyl)-3-yl]ethyl}-N-[(2-methoxypyridin-4-yl)methyl]piperidine-4-carboxamide]: at SARS-CoV-2 PLpro [1], the “loss of potency relative to parent 5c” value is 20 fold. On SARS-CoV-2 PLpro [1] (calculated IC50), the IC50 was 18000 nM.
For the molecule `CNC(=O)C1CCN([C@H](C)c2cccc3ccccc23)CC1` [Compound 12, (R)-N-methyl-1-(1-(naphthalen-1-yl)ethyl)piperidine-4-carboxamide], the “loss of potency relative to parent 5c” value at SARS-CoV-2 PLpro [1] is 4 fold. Moreover, the IC50 at SARS-CoV-2 PLpro [1] (calculated IC50) was 3100 nM.
For `COc1cc(CNC(=O)C2CCN(C(C)c3ccc(F)c4ccccc34)CC2)ccn1` (stereo not drawn) [Compound 8, 1-[1-(4-fluoronaphthalen-1-yl)ethyl]-N-[(2-methoxypyridin-4-yl)methyl]piperidine-4-carboxamide] the same measures were 3 fold and 2200 nM.
Regarding `COc1cc(CNC(=O)C2CCN(C(C)c3c(OC)ccc4ccccc34)CC2)ccn1.O=CO` (stereo not drawn) [Compound 6, 1-[1-(2-methoxynaphthalen-1-yl)ethyl]-N-[(2-methoxypyridin-4-yl)methyl]piperidine-4-carboxamide formate], the “potency … in words” value at SARS-CoV-2 PLpro [1] is “not tolerated”.
For `COc1cc(CNC(=O)C2CCN(C(C)c3ccc(OC)c4ccccc34)CC2)ccn1` (stereo not drawn) [Compound 9, 1-[1-(4-methoxynaphthalen-1-yl)ethyl]-N-[(2-methoxypyridin-4-yl)methyl]piperidine-4-carboxamide], the “Mouse plasma protein binding” value is 90.1 % bound. For the same molecule, in the data set with Caco-2 cell monolayers, the “efflux in Caco-2” value was “no evidence of efflux”. The molecule further showed a Kd on MERS-CoV PLpro [2] above 20000 nM. The Kd at MERS-CoV PLpro [2] (read-out: KD Exp1, MERS-CoV) is above 20000 nM. Besides, the Kd on MERS-CoV PLpro [2] (read-out: KD Exp3, MERS-CoV) was above 20000 nM. At SARS-CoV PLpro [3], this molecule registered an IC50 of 700 nM. In the data set with SARS-CoV-2, the “reduction of viral titer” value is 1 log and the viral titer result is recorded as “below the limit of detection”. For the same molecule, in “in vitro [4]”, the half-life worked out at 35 min and the microsomal CLint worked out at 50 µL/min/mg. At SARS-CoV-2 PLpro [5] (KD Exp1, SARS-CoV-2 PLpro WT), this molecule gave a Kd of 1420 nM. This molecule also returned a Kd on SARS-CoV-2 PLpro [5] (KD Exp2, SARS-CoV-2 PLpro WT) of 1820 nM. The same molecule showed a Kd at SARS-CoV-2 PLpro [5] (KD Exp3, SARS-CoV-2 PLpro WT) of 2340 nM. For the same molecule, the Kd at SARS-CoV-2 PLpro [5] (KD, SARS-CoV-2) turned out to be 1860 ± 460 nM. This molecule also came in with an IC50 against SARS-CoV-2 PLpro [1] (IC50, SARS-CoV-2) of 760 nM. In addition, the Kd on SARS-CoV PLpro [6] (KD Exp1, SARS-CoV) amounted to 805 nM. This molecule registered a Kd on SARS-CoV PLpro [6] (KD Exp2, SARS-CoV) of 800 nM. Further, the Kd at SARS-CoV PLpro [6] (KD Exp3, SARS-CoV) amounted to 840 nM. In addition, the Kd on SARS-CoV PLpro [6] (KD, SARS-CoV) was 815 nM and 820 nM. Moreover, in the data set “in vitro [7]”, the Papp A→B stood at 46 ×10⁻⁶ cm/s and the Papp B→A worked out at 46 ×10⁻⁶ cm/s. In addition, the kinetic solubility in “physchem” (pH 2, aqueous buffer) was above 140 µg/mL. In the data set “physchem” (pH 6.5, aqueous buffer), this molecule gave a kinetic solubility of 70 to 140 µg/mL (≈ 161 to 323 µM). In “in vitro [8]”, the half-life was determined as 39 min and the microsomal CLint came to 45 µL/min/mg. The IC50 at MERS-CoV PLpro [9] was above 98000 nM.
Consider `C[C@H](c1cccc2ccccc12)N1CCC(C(=O)NCc2cccc(F)c2)CC1` [Compound 3k], for which the “Mouse plasma protein binding” value came out at 95.3 % bound. Besides, in the data set on Caco-2 cell monolayers, the “efflux in Caco-2” value is listed as “no evidence of efflux”. Moreover, at MERS-CoV PLpro [2], the Kd is above 20000 nM. Further, the Kd at MERS-CoV PLpro [2] (read-out: KD Exp1, MERS-CoV) was above 20000 nM. The Kd at MERS-CoV PLpro [2] (read-out: KD Exp3, MERS-CoV) is above 20000 nM. The molecule further returned an IC50 against SARS-CoV PLpro [3] of 860 nM. The “reduction of viral titer” value with SARS-CoV-2 came out at 1 log. In the data set “in vitro [4]”, this molecule yielded a half-life of 5 min and a microsomal CLint of 337 µL/min/mg. The Kd at SARS-CoV-2 PLpro [5] (KD Exp1, SARS-CoV-2 PLpro WT) is 2000 nM. The molecule further had a Kd on SARS-CoV-2 PLpro [5] (KD Exp2, SARS-CoV-2 PLpro WT) of 2350 nM. The same molecule displayed a Kd at SARS-CoV-2 PLpro [5] (KD Exp3, SARS-CoV-2 PLpro WT) of 2850 nM. The same molecule had a Kd at SARS-CoV-2 PLpro [5] (KD, SARS-CoV-2) of 2400 ± 430 nM. Moreover, the IC50 on SARS-CoV-2 PLpro [1] (IC50, SARS-CoV-2) worked out at 1020 nM. On SARS-CoV PLpro [6] (KD Exp1, SARS-CoV), this molecule displayed a Kd of 662 nM. For the same molecule, binding at SARS-CoV PLpro [6] (KD Exp2, SARS-CoV) was put at a Kd of 795 nM. In addition, the Kd at SARS-CoV PLpro [6] (KD Exp3, SARS-CoV) worked out at 686 nM. Besides, the Kd at SARS-CoV PLpro [6] (KD, SARS-CoV) was 714 nM and 710 nM. For the same molecule, in “in vitro [7]”, the Papp A→B amounted to 35 ×10⁻⁶ cm/s and the Papp B→A stood at 36 ×10⁻⁶ cm/s. Moreover, the kinetic solubility in the data set “physchem” (pH 2, aqueous buffer) was above 100 µg/mL. Further, in the data set “physchem” (pH 6.5, aqueous buffer), the kinetic solubility is 12.5 to 25 µg/mL (≈ 32 to 64 µM). Besides, in “in vitro [8]”, the half-life came to 7 min and the microsomal CLint was 247 µL/min/mg. This molecule also came in with an IC50 against MERS-CoV PLpro [9] above 98000 nM.
With `C[C@H](c1cccc2ccccc12)N1CCC(C(=O)NCC2CCOCC2)CC1` [Compound 17, (R)-1-(1-(naphthalen-1-yl)ethyl)-N-((tetrahydro-2H-pyran-4-yl)methyl)piperidine-4-carboxamide], the IC50 at SARS-CoV-2 PLpro [1] (calculated IC50) was 1300 nM.
On the same count and under the same terms, to `COc1cc(CNC(=O)C2CCN(C(C)c3cc(Cl)ccc3OC)CC2)ccn1` (stereo not drawn) [Compound 4, 1-(1-(5-chloro-2-methoxyphenyl)ethyl)-N-((2-methoxypyridin-4-yl)methyl)piperidine-4-carboxamide] belongs 4600 nM.
As for `COc1cc(CNCC2CCN([C@H](C)c3cccc4ccccc34)CC2)ccn1.O=CO` [Compound 11, (R)-1-(2-methoxypyridin-4-yl)-N-((1-(1-(naphthalen-1-yl)ethyl)piperidin-4-yl)methyl)methanamine formate], at SARS-CoV-2 PLpro [1], the “loss of potency relative to parent 5c” value is on record as 7 fold. Also, the IC50 at SARS-CoV-2 PLpro [1] (calculated IC50) is 5700 nM.
In the case of `C[C@H](c1cccc2ccccc12)N1CCC(C(=O)NCc2ccn(C)c(=O)c2)CC1` [Compound 13, (R)-N-[(1-methyl-2-oxo-1,2-dihydropyridin-4-yl)methyl]-1-[1-(naphthalen-1-yl)ethyl]piperidine-4-carboxamide], at SARS-CoV-2 PLpro [1] (calculated IC50), the IC50 was 690 nM.
As for `C[C@H](c1cccc2ccccc12)N1CCC(C(=O)NCc2ccc(S(N)(=O)=O)cc2)CC1` [Compound 16, (R)-1-(1-(naphthalen-1-yl)ethyl)-N-(4-sulfamoylbenzyl)piperidine-4-carboxamide formate], the IC50 at SARS-CoV-2 PLpro [1] (calculated IC50) is 590 nM.
Consider `C[C@H](c1cccc2ccccc12)N1CCC(C(=O)NCc2cccnc2)CC1` [Compound 15, (R)-1-(1-(naphthalen-1-yl)ethyl)-N-(pyridin-3-ylmethyl)piperidine-4-carboxamide], for which the IC50 at SARS-CoV-2 PLpro [1] (calculated IC50) is 820 nM.
For `COc1cc(CNC(=O)C2CCN(C(C)c3c(C)sc4ccccc34)CC2)ccn1` (stereo not drawn) [Compound 3, N-[(2-methoxypyridin-4-yl)methyl]-1-{1-[2-methylbenzo(b)thiophen-3-yl]ethyl}piperidine-4-carboxamide], at SARS-CoV-2 PLpro [1], the “potency … in words” value is “completely inactive”.

The values above are taken from paper PMC9039177 (Frontiers in Chemistry, 2022).
